Test results from paper PMC4858680, “A platinum-based hybrid drug design approach to circumvent acquired resistance to molecular targeted tyrosine kinase inhibitors” (Scientific Reports, 2016).

Columns and labels:
[1] = target: ABL1(Q252H)-phosphorylated (Homo sapiens, UniProt P00519, Q252H); conditions: 10 μM
[2] = target: T1, ABL1(H396P)-nonphosphorylated (Homo sapiens, UniProt P00519, H396P); conditions: 10 μM
[3] = target: T1, ABL1(H396P)-nonphosphorylated; assay: biochemical; conditions: read-out: Percent control
FLT3(K663D) = target: T2, FLT3(K663D) (Homo sapiens, UniProt P36888, K663Q); assay: biochemical; conditions: read-out: Percent control
T2 sequence (P36888 564-993 K663Q limits assumed): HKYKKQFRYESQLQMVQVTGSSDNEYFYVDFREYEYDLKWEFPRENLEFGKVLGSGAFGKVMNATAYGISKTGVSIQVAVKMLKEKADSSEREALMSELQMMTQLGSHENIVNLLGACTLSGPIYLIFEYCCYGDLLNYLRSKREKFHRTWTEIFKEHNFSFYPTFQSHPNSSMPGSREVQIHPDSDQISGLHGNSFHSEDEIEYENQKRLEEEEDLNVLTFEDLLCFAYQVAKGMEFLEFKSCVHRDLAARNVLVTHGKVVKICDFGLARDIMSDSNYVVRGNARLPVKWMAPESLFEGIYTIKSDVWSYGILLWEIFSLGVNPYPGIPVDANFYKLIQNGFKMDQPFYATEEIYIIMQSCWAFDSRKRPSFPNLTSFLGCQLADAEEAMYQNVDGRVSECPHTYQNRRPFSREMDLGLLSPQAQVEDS

P-gp = P-gp (Homo sapiens, UniProt P08183); assay: in vitro; conditions: dog, MDCK-MDR1, pH 7.4
Sequence of P-gp (P08183 whole entry): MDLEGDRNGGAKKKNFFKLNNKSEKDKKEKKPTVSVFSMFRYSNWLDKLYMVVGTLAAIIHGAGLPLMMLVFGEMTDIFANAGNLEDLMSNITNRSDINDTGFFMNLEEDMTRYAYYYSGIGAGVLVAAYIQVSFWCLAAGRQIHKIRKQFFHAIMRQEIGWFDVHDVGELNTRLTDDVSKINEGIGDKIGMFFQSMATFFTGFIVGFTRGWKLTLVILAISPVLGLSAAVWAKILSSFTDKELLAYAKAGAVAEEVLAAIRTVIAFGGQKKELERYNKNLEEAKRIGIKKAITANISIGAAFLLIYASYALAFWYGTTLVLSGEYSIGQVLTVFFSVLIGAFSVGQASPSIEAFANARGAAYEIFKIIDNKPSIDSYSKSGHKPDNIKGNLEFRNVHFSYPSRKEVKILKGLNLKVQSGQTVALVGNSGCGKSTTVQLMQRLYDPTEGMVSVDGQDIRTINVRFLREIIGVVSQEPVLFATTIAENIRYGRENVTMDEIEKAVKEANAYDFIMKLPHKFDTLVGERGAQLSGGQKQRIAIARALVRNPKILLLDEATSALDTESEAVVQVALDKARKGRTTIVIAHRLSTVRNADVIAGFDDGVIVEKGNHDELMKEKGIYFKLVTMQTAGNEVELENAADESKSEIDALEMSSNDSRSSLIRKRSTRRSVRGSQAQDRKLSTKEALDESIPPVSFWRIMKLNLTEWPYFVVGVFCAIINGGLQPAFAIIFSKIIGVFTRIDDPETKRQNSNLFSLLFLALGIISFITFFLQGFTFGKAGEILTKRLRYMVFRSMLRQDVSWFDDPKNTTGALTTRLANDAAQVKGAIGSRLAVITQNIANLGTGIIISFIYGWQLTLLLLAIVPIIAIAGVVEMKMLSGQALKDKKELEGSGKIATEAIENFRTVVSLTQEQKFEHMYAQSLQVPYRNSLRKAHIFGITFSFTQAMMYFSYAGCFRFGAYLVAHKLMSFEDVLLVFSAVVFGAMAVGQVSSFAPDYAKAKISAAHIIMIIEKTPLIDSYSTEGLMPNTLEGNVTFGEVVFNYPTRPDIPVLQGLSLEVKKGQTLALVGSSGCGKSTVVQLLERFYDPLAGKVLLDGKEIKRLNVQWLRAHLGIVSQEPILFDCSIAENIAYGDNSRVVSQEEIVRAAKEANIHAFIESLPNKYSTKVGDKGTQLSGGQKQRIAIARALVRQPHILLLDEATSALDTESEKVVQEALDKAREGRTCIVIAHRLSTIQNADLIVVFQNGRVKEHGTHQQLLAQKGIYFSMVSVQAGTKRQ

SMILES	Percent control [1] [%]	Percent control [2] [%]	remaining activity at 10 µM [3] [%]	remaining activity at 10 µM (FLT3(K663D)) [%]	Papp A→B at 120 min, 10 μM (P-gp) [nm/s]	Papp B→A at 120 min, 10 μM (P-gp) [nm/s]
C#Cc1cccc(Nc2c3cc(OCCOC)c(OCCOC)cc3nc[n+]2[Pt@SP2-2]([NH3+])([NH3+])[Cl])c1 [2a, cisplatin-erlotinib]	12	0.9	–	–	–	–
C#Cc1cccc(Nc2ncnc3cc(OCCOC)c(OCCOC)cc23)c1 [Erlotinib]	–	–	0.9	11.5	184	742
